# Literature values in patent publication US20210386978A1, “Drug Delivery Devices and Systems for Local Drug Delivery to the Upper Urinary Tract” (TARIS Biomedical LLC, priority 2018, published 2021).
# Structures can show the parent of a compound that is named as a salt.
# Conditions: solubility terms in the same block are defined in water at 37° C.
row,Compound,approximate solubility
1,Nc1ccn([C@@H]2O[C@H](CO)[C@@H](O)C2(F)F)c(=O)n1 [gemcitabine HCl],~80 mg/mL
2,Nc1ccn([C@@H]2O[C@H](CO)[C@@H](O)C2(F)F)c(=O)n1 [gemcitabine base],~15 mg/mL
3,Cc1ccc(O)c([C@H](CCN(C(C)C)C(C)C)c2ccccc2)c1 [tolterodine tartrate],~12 mg/mL
4,O=C(O[C@H]1C[C@H]2CC[C@@H](C1)[N+]21CCCC1)C(O)(c1ccccc1)c1ccccc1 [trospium chloride],~500 mg/mL
